From patent publication US20250002954A1, “Novel Compound, Use Thereof, and Method for Producing Same, and Compound-Containing Composition, Method for Producing 4-Trehalosamine, and Microorganism” (Microbial Chemistry Research Foundation, priority 2021, published 2025)

Legend:
[1] = tested on: Mycobacterium smegmatis mc^2 (ATCC 700084); test: Evaluation of mycobacterium-protective activity in freeze-dried condition; type: cell-based; conditions: for Numbers of live bacterial cells (relative numbers): Mycobacterium smegmatis freeze-dried with 6% aqueous solution (final concentration 3%), test sample 3 (FD) = 1
Description: Using test samples 1 to 5 containing mycobacterium prepared in the following manner, microorganism-protective activity with trehalose or 4-trehalosamine in a freeze-dried condition was evaluated.
Frozen stock of mycobacterium ([…] Mycobacterium smegmatis mc^2 (American Type Culture Collection (ATCC) 700084)) was inoculated in 10 mL of Middlebrook 7H9 culture medium (manufactured by Becton, Dickinson and Company) and cultured at 37° C. for 72 hours while shaking it at 220 rpm. After culture, it was centrifuged at 3,000×g for 5 minutes, washed once with 10 mL of water, and then suspended in 10 mL of water, thus obtaining mycobacterium suspension. 50 μL of water was added to and mixed with 50 μL of this mycobacterium suspension, and the mixture was left to stand at 4° C. for 20 hours, preparing control (NF).
After mycobacterium suspension was prepared in a similar manner to test sample 1, 50 μL of 6% aqueous solution of trehalose was added to and mixed with 50 µL of the mycobacterium suspension, and the mixture was frozen at −80° C. for 10 minutes. It was then freeze-dried for 20 hours with a freeze dryer (FLEXI-DRY, manufactured by FTS systems INC., Warminster) connected to a vacuum pump (P65D, manufactured by PHIL Sato Vac INC.), preparing freeze-dried product (TRH) of mycobacterium with TRH.
Freeze-dried product (4TA) of mycobacterium with 4TA was obtained in a similar manner to the preparation method of test sample 4 except that trehalose was changed to 4-trehalosamine (4TA) in the preparation method of test sample 4.
For test samples 1 and 2, serial suspensions were made by diluting them to 1/10 with water. […]
Wells in which the number of colonies was measurable were selected and the numbers (relative numbers) of live bacterial cells per well on test samples 1, 2, 4, and 5 when the number of live bacterial cells per well on test sample 3 (FD) was “1” were calculated in consideration of the dilution concentrations of those test samples.

[2] = tested on: human ovarian cancer cells OVK18 and human malignant melanoma cells Mewo; test: Autophagy inducing effect on cultured cells (western blotting of autophagy-related proteins); type: cell-based; conditions: 24 hours treatment, western blotting
Description: Expression and phosphorylation patterns of autophagy-related proteins when human ovarian cancer cells or human malignant melanoma cells were treated with 4-trehalosamine and trehalose analog for 24 hours were determined by western blotting.
Human ovarian cancer cells OVK18 (obtained from RIKEN BRC) and human malignant melanoma cells Mewo (JCRB0066) were each inoculated on a 12-well microplate at 8×10^4 cells/mL/well and cultured in DMEM culture medium at 37° C. for 72 hours, after which they were treated with test samples.
The test samples used were the 4-trehalosamine (4TA) obtained in the <Purification process> of production example 10, trehalose (TRH), the IMCTA-Cn compounds obtained in synthesis examples 1 to 8, trehalose ester (TRH-Cn) (manufactured by Dojindo Laboratories), n-dodecyl-β-D-maltoside (DDM), maltose (MLT), sucrose (SCR), and rapamycin (RM). Untreated cells without addition of compounds were used as control.
In treatment with the test samples, in order to avoid contact of a compound with locally high concentration with cells, a half of the culture fluid in each well was taken, and a required amount of test sample was dissolved in it. After dissolving it sufficiently, it was returned to the original well and treated at 37° C. for 24 hours.
Subsequently, culture medium containing the test samples was removed, washed once with PBS, and dissolved with 2×SDS sample buffer not containing 2-mercaptoethanol (2-ME) or bromphenol blue (BPB). After measuring the protein concentration in the dissolved sample with a BCA protein assay kit (manufactured by Thermo Fisher Scientific), 2-ME and BPB were added and the sample was boiled for 5 minutes, which was used as a sample for western blotting.
The western blotting was performed in a similar manner to test example 4 except that anti-LC3 antibody, which is a marker for autophagy, anti-p62, anti-cathepsin D antibody, anti-Phospho-Akt (Ser473) antibody, anti-Akt antibody, anti-Phospho-p70 S6K (T389) antibody, and anti-p70 S6K antibody (all manufactured by Cell Signaling Technology) were used at 1/2,000 dilution as the primary antibodies in the method described in test example 4.
The results for human ovarian cancer cells OVK18 are shown in FIGS. 20A to 20C, and the results for human malignant melanoma cells Mewo are shown in FIGS. 20D to 20F. In FIGS. 20A, 20B, 20D, and 20E, “PCD” denotes precursors of cathepsin D and “CD-HC” denotes cathepsin D heavy chain.

| Compound | Numbers of live bacterial cells (relative numbers) [1] | expression of LC3-II (autophagy marker) [2] | protective effect on microorganisms, comparison ([1]; Mycobacterium smegmatis, freeze-dried) |
| --- | --- | --- | --- |
| OC[C@H]1O[C@H](O[C@H]2O[C@H](CO)[C@@H](O)[C@H](O)[C@H]2O)[C@H](O)[C@@H](O)[C@@H]1O [trehalose, reference compound] | 10 | – | – |
| OC[C@H]1O[C@@](CO)(O[C@H]2O[C@H](CO)[C@@H](O)[C@H](O)[C@H]2O)[C@@H](O)[C@@H]1O [sucrose] | – | expression of LC3-II was also observed | – |
| N[C@H]1[C@H](O)[C@@H](O)[C@@H](O[C@H]2O[C@H](CO)[C@@H](O)[C@H](O)[C@H]2O)O[C@@H]1CO [4-trehalosamine] | 100 | elevated expression of LC3-II | stronger than when trehalose was added |
